Experimental data: ChEMBL document CHEMBL1201862, “PubChem BioAssay data set” (2004)
The source made the active and inactive calls.

Columns and labels:
[1] = biological target: T1, Small ubiquitin-related modifier 1 (Homo sapiens, UniProt P63165); test: inhibitors of SUMO1 partner interactions, dose response, biochemical, FRET (AID 624383); format: functional; settings: read-out: IC50_Mean
[2] = biological target: T2, Rac GTPase-activating protein 1 (Homo sapiens, UniProt Q9H0H5); test: MgcRacGAP GTPase-activating activity inhibitors, confirmation, biochemical, ADP Hunter fluorescence, primary and confirmatory (AID 624330); format: functional
T2 sequence (Q9H0H5 whole entry): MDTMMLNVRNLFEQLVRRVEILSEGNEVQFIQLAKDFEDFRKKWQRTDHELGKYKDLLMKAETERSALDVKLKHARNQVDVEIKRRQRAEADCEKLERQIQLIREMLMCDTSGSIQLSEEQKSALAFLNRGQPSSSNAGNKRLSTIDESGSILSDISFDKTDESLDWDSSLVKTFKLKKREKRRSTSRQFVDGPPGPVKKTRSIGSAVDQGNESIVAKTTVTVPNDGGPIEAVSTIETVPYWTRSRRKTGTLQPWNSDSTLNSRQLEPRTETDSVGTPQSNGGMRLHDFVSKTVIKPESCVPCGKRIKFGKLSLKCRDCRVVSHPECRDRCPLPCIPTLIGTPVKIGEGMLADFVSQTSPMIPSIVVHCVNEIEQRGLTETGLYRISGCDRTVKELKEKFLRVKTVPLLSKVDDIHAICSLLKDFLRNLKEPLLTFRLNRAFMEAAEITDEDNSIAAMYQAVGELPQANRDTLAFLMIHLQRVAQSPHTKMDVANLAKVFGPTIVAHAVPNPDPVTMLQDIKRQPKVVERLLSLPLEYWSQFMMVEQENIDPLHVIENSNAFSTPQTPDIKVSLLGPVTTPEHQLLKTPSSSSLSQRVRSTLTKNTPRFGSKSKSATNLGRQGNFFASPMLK

Troponin, cardiac muscle = Troponin, cardiac muscle (Homo sapiens, UniProt P19429+P45379+P63316); test: inhibitors of cardiac thin filament calcium sensitivity, dose response, biochemical, fluorescence, cardiac regulated thin filaments, triplicate IC50 (AID 504742); format: protein-complex assay
[3] = biological target: T1, Small ubiquitin-related modifier 1; test: inhibitors of SUMO1 peptide binding, dose response, biochemical, fluorescence polarization, uHTS hits (AID 624382); format: functional; settings: read-out: IC50_Mean
ORF 73 = biological target: T3, ORF 73 (Human herpesvirus 8, UniProt O40947); test: inhibitors of C-LANA binding to LBS DNA, dose response, biochemical, fluorescence polarization, cherry-picked samples (AID 504725); set-up: species or system Human gammaherpesvirus 8;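 further: fluorescence polarization of a labeled DNA duplex reporting LANA DNA binding; potency is for inhibitors that block LANA binding to the DNA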
T3 sequence (O40947 whole entry): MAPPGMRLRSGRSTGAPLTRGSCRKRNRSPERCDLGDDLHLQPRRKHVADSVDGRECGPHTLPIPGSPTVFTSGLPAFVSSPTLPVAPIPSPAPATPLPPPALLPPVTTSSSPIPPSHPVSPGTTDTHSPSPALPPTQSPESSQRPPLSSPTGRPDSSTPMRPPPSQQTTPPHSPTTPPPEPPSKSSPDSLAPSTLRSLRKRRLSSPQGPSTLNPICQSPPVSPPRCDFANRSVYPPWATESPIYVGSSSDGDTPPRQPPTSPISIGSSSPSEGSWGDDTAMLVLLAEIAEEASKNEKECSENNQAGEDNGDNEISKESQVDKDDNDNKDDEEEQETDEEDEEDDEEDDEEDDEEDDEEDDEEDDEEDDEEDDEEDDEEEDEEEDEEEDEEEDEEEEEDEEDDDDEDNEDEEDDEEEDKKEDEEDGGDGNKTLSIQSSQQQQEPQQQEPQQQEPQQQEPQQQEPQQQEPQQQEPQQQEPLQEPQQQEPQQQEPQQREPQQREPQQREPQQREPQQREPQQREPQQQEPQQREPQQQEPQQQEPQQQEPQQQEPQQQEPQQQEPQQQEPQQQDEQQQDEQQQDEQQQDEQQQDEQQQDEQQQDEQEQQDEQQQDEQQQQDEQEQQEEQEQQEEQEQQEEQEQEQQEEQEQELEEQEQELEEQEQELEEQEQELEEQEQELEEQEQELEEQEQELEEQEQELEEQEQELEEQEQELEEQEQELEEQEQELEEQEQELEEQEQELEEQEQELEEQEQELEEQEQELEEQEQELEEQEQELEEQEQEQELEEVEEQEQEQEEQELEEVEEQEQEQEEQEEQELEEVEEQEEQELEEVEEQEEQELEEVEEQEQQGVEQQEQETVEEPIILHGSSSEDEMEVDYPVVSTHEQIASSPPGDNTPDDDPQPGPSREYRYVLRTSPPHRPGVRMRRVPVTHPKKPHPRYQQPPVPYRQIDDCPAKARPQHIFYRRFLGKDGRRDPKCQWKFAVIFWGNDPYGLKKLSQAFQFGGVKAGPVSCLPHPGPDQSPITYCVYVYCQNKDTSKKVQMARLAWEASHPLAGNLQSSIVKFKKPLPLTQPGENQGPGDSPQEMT

Hexokinase HKDC1 = biological target: T4, Hexokinase HKDC1 (Homo sapiens, UniProt Q2TB90); test: HKDC1 hexokinase inhibitors, dose response, biochemical, W721R variant (AID 504729); format: functional
T4 sequence (Q2TB90 whole entry): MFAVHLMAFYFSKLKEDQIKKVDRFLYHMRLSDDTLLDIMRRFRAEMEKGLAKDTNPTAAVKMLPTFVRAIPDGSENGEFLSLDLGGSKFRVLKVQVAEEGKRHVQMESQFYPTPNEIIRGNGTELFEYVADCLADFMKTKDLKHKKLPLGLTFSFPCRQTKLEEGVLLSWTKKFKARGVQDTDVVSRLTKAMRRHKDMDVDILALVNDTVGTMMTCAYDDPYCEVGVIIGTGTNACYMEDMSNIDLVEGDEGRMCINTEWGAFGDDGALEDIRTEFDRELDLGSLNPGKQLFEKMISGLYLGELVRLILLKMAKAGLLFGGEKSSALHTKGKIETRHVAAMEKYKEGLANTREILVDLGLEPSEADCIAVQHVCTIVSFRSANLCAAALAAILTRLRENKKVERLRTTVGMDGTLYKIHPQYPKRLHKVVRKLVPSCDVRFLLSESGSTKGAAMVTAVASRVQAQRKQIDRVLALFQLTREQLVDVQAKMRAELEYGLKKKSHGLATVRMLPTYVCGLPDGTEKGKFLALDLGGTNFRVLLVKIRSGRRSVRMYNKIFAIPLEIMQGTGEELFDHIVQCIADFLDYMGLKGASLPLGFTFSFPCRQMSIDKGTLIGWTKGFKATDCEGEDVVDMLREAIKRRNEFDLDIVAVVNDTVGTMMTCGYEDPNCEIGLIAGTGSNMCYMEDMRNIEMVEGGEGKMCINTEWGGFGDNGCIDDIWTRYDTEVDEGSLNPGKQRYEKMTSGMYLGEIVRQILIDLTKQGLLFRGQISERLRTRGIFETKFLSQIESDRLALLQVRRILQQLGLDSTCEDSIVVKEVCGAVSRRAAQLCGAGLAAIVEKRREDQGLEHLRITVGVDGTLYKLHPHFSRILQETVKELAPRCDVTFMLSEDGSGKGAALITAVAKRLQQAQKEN

[4] = biological target: T5, Small ubiquitin-related modifier 2 (Homo sapiens, UniProt P61956); test: inhibitors of SUMO2 protein-protein interaction, dose response, selectivity assay for SUMO1 interaction inhibitor project, biochemical, FRET, human SUMO2, uHTS hits (AID 624384); format: functional; settings: read-out: IC50_Mean
[5] = biological target: T6, Polyadenylate-binding protein 1 (Homo sapiens, UniProt P11940); test: PABP1 MLLE–PAM2 interaction inhibitors, dose response, miRNA deadenylation inhibitor project, biochemical, fluorescence polarization, Cy5-PAM2 peptide, secondary (AID 602260); format: functional; settings: read-out: IC50_Mean
Salmon testes DNA = test: DNA intercalators displacing acridine orange, dose response, artefact control for KSHV LANA DNA-binding inhibitor project, biochemical, fluorescence polarization, cherry-picked samples, set 2 (AID 504727); set-up: species or system Salmonidae
[6] = biological target: T5, Small ubiquitin-related modifier 2; test: SUMO2–SIM peptide binding inhibitors, dose response, selectivity assay for SUMO1 interaction inhibitor project, biochemical, fluorescence polarization, uHTS hits (AID 624385); format: functional; settings: read-out: IC50_Mean
Genome polyprotein = Genome polyprotein (dengue virus type 2, UniProt P29990); test: Dengue-2 NS5 methyltransferase inhibitors, primary screen, biochemical, confirmation dose response (AID 588689); format: functional
HeLa = test: HeLa cell cytotoxicity, dose response, cytotoxicity control, 24 h, cherry-picked samples (AID 504726); format: functional, cell-based; settings: Homo sapiens;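 further: potency for cytotoxicity as loss of luminescence signal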
[7] = biological target: T6, Polyadenylate-binding protein 1; test: PABP1 MLLE–PAM2 binding inhibitor potency, dose response, biochemical, fluorescence polarization, FITC-PAM2 peptide (AID 602259); format: functional; settings: read-out: IC50_Mean
Estrogen receptor = biological target: T7, Estrogen receptor (Homo sapiens, UniProt P03372); test: potentiators of ERα–SRC-1 coactivator binding, dose response, biochemical, TR-FRET, ERα LBD (AID 737)
T7 sequence (P03372 whole entry): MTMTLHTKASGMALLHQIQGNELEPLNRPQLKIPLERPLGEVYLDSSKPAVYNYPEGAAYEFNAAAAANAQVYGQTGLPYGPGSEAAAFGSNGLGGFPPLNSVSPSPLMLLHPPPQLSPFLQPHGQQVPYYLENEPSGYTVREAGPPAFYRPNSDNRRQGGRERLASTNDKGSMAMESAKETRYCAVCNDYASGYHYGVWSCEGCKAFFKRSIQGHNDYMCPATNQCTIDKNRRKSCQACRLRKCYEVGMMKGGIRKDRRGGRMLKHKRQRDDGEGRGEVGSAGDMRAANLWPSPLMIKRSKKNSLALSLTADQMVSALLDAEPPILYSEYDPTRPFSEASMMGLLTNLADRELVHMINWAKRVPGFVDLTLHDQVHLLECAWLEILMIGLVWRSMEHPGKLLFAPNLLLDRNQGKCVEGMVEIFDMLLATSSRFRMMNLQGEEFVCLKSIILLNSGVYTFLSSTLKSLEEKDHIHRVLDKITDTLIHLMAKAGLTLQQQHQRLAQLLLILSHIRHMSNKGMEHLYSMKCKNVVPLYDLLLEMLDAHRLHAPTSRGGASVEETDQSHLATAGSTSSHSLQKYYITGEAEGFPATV

[8] = biological target: G-protein coupled receptor 55 (Homo sapiens, UniProt Q9Y2T6); test: GPR55 agonists via beta-arrestin recruitment, primary screen, imaging, U2OS cells, beta-arrestin-GFP redistribution (AID 1961); format: functional
[9] = biological target: T8, Short transient receptor potential channel 4 (Mus musculus, UniProt Q9QUQ5); test: TRPC4 positive allosteric modulators, dose response, cell-based, HEK293 TRPC4/mu-opioid, Fluo-4 calcium, EC20 DAMGO (AID 434941); format: functional
T8 sequence (Q9QUQ5 whole entry): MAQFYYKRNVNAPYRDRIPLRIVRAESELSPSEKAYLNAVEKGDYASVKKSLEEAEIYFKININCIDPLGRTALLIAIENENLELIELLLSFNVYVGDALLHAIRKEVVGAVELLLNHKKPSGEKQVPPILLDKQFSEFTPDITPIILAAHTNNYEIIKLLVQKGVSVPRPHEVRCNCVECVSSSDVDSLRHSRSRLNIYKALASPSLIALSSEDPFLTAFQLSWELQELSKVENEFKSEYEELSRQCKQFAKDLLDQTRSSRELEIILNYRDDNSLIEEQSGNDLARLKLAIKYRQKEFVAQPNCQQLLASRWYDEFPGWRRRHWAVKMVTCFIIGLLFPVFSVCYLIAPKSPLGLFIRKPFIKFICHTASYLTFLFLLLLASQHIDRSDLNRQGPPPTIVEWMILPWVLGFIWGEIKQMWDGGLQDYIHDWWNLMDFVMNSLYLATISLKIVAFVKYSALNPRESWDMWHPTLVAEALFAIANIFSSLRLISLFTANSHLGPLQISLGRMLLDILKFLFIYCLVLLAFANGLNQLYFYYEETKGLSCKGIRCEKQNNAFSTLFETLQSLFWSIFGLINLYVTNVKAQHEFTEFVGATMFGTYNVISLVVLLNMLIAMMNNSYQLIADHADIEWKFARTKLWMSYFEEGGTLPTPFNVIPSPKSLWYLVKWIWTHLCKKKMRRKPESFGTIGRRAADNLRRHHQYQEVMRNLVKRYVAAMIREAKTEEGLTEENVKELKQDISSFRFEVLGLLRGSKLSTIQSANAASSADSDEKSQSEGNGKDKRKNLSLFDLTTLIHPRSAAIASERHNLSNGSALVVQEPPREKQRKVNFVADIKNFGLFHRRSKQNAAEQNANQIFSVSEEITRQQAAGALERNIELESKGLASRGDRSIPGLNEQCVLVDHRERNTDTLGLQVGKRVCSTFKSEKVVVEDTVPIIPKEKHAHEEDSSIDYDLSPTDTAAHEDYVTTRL

[10] = ADAM10 inhibitors, peptide cleavage, dose response, biochemical, QFRET (AID 743254);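 further: ADAM10 enzyme with the DM2 quenched FRET peptide as substrate; EDANS fluorescence gain as the protease cuts the substrate; inhibitor potency against ADAM10 proteolytic activity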
[11] = biological target: Disintegrin and metalloproteinase domain-containing protein 17 (Homo sapiens, UniProt P78536); test: ADAM17 protease inhibitors, dose response, counter-screen for ADAM10 exosite inhibitor project, biochemical, quenched FRET substrate (AID 743253)

O=S(=O)(O)c1ccc(O)c2cc(Nc3ccccc3)ccc12
IC50 [1]: 880 nM (active)
IC50 [2]: 19.6 µM (active)
IC50 (Troponin, cardiac muscle): 3.89 µM (active)
IC50 [3]: 11.6 µM (active)
AC50 (ORF 73): 6.72 µM (active)
IC50 (Hexokinase HKDC1): 9.14 µM (active)
IC50 [4]: 580 nM (active)
IC50 [5]: > 66 µM (inactive)
AC50 (Salmon testes DNA): 98.3 µM (active)
IC50 [6]: 7.83 µM (active)
IC50 (Genome polyprotein): 20 µM (active)
AC50 (HeLa): 233 µM (active)
IC50 [7]: > 66 µM (inactive)

Cc1noc(C)c1COC(=O)c1cc2c3ccccc3n(C)c2s1
EC50 (Estrogen receptor): 23.1 µM (active)
EC50 [8]: 20.4 µM (inactive)

O=C(NCc1ccccc1)C1=C[C@H](c2ccc(Br)cc2)C[C@H](OCc2ccc(CO)cc2)O1
EC50 [9]: 10.6 µM (active)
IC50 [10]: > 69.5 µM (inactive)
IC50 [11]: > 69.5 µM (inactive)
